Consider eight cell lines from the supplement of paper PMC10307832.

Common to all, as to test: relative viability (nuclei count vs DMSO), 5 days (fraction); higher = more cells survive
Compound in experiment [1]: O=C(Nc1c[nH]nc1-c1nc2ccc(CN3CCOCC3)cc2[nH]1)NC1CC1 [AT9283] + CC(=O)c1c(C)c2cnc(Nc3ccc(N4CCNCC4)cn3)nc2n(C2CCCC2)c1=O [Palbociclib] (partner 0.5 µM)
The essentials: (§1)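 Relative viability divides the nuclei count in treated wells by that in vehicle wells. Lung cancer cell lines were seeded in 1536-well plates, dosed by pin tool the next day, and fixed and stained after 5 days in one step with final 0.05% Triton X-100, 1% formaldehyde and 1 ug/ml Hoechst. Dosing was a single drug or a fixed anchor-drug dose plus five library-drug doses (not always all listed) in √10 steps, and values are medians of duplicate plates imaged at 4×.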

Compound in experiment [2]: O=C(Nc1c[nH]nc1-c1nc2ccc(CN3CCOCC3)cc2[nH]1)NC1CC1 [AT9283] + Cc1nc(Nc2ncc(C(=O)Nc3c(C)cccc3Cl)s2)cc(N2CCN(CCO)CC2)n1 [Dasatinib] (partner 0.075 µM)
The method in brief: as §1

Compound in experiment [3]: C#Cc1cccc(Nc2ncnc3cc(OCCOC)c(OCCOC)cc23)c1 [Erlotinib] + CS(=O)(=O)CCNCc1ccc(-c2ccc3ncnc(Nc4ccc(OCc5cccc(F)c5)c(Cl)c4)c3c2)o1 [Lapatinib] (partner 2 µM)
The essentials:
as §1

Compound in experiment [4]: O=C(Nc1c[nH]nc1-c1nc2ccc(CN3CCOCC3)cc2[nH]1)NC1CC1 [AT9283] + CC(=O)Nc1cccc(-n2c(=O)n(C3CC3)c(=O)c3c(Nc4ccc(I)cc4F)n(C)c(=O)c(C)c32)c1 [Trametinib] (partner 0.02 µM)
The essentials: as §1

Compound in experiment [5]: C#Cc1cccc(Nc2ncnc3cc(OCCOC)c(OCCOC)cc23)c1 [Erlotinib] + CC(=O)Nc1cccc(-n2c(=O)n(C3CC3)c(=O)c3c(Nc4ccc(I)cc4F)n(C)c(=O)c(C)c32)c1 [Trametinib] (partner 0.02 µM)
The method in brief: as §1

As to H3255, the relative viability in experiment [1] (first compound 0.003 µM) worked out at 0.337; in experiment [1] (first compound 0.03 µM) it was 0.316; in experiment [1] (first compound 0.09487 µM), 0.323; in experiment [1] (first compound 0.3 µM), 0.284; in experiment [2] (first compound 0.003 µM), 0.323; in experiment [2] (first compound 0.03 µM), 0.316. Moreover, the relative viability in experiment [2] (first compound 0.09487 µM) stood at 0.331; in experiment [2] (first compound 0.3 µM), 0.235; in experiment [3] (first compound 0.02 µM), 0.323; in experiment [3] (first compound 0.2 µM), 0.259; in experiment [3] (first compound 0.6325 µM), 0.253; in experiment [4] (first compound 0.003 µM), 0.65. The relative viability came to 0.614 in experiment [4] (first compound 0.03 µM); 0.459 in experiment [4] (first compound 0.09487 µM); 0.284 in experiment [4] (first compound 0.3 µM); 0.632 in experiment [5] (first compound 0.02 µM); 0.412 in experiment [5] (first compound 0.2 µM); 0.326 in experiment [5] (first compound 0.6325 µM). In experiment [5] (first compound 2 µM), the relative viability stood at 0.214.

Turning to ABC-1, the relative viability came out at 0.664 in experiment [1] (first compound 0.003 µM); 0.381 in experiment [1] (first compound 0.03 µM); 0.295 in experiment [1] (first compound 0.09487 µM); 0.325 in experiment [1] (first compound 0.3 µM); 0.498 in experiment [2] (first compound 0.003 µM); 0.178 in experiment [2] (first compound 0.03 µM). Besides, the relative viability in experiment [2] (first compound 0.09487 µM) was 0.196; in experiment [2] (first compound 0.3 µM), 0.207; in experiment [3] (first compound 0.02 µM), 1.26; in experiment [3] (first compound 0.2 µM) it was 1.25; in experiment [3] (first compound 0.6325 µM), 1.3; in experiment [3] (first compound 2 µM) it was 0.971.

As to NCI-H1299, the relative viability was determined as 0.994 in experiment [3] (first compound 0.02 µM), 0.995 in experiment [3] (first compound 0.2 µM) and 0.904 in experiment [3] (first compound 0.6325 µM).

For the cell line NCI-H1993, the relative viability in experiment [1] (first compound 0.003 µM) is 0.597; in experiment [1] (first compound 0.03 µM), 0.665; in experiment [1] (first compound 0.09487 µM) it was 0.534; in experiment [1] (first compound 0.3 µM), 0.34; in experiment [2] (first compound 0.003 µM), 0.618; in experiment [2] (first compound 0.03 µM) it was 0.557. The relative viability in experiment [2] (first compound 0.09487 µM) came out at 0.462; in experiment [2] (first compound 0.3 µM), 0.448; in experiment [3] (first compound 0.02 µM), 0.961; in experiment [3] (first compound 0.2 µM), 0.795; in experiment [3] (first compound 0.6325 µM), 0.698; in experiment [3] (first compound 2 µM), 0.827. In addition, the relative viability in experiment [4] (first compound 0.003 µM) was found to be 0.541; in experiment [4] (first compound 0.03 µM), 0.529; in experiment [4] (first compound 0.09487 µM) it was 0.445; in experiment [4] (first compound 0.3 µM) it was 0.433; in experiment [5] (first compound 0.02 µM), 0.597; in experiment [5] (first compound 0.2 µM) it was 0.491. For the same cell line, the relative viability in experiment [5] (first compound 0.6325 µM) was found to be 0.497; in experiment [5] (first compound 2 µM) it was 0.465.

On to LOU-NH91, for which the relative viability came to 0.552 in experiment [1] (first compound 0.003 µM); 0.515 in experiment [1] (first compound 0.03 µM); 0.418 in experiment [1] (first compound 0.09487 µM); 0.439 in experiment [1] (first compound 0.3 µM); 0.524 in experiment [2] (first compound 0.003 µM); 0.562 in experiment [2] (first compound 0.03 µM). The relative viability in experiment [2] (first compound 0.09487 µM) is 0.366; in experiment [2] (first compound 0.3 µM), 0.296; in experiment [3] (first compound 0.02 µM), 0.735; in experiment [3] (first compound 0.2 µM), 0.723; in experiment [3] (first compound 0.6325 µM), 0.786; in experiment [3] (first compound 2 µM) it was 0.734. Also, the relative viability is 0.801 in experiment [4] (first compound 0.003 µM); 0.788 in experiment [4] (first compound 0.03 µM); 0.536 in experiment [4] (first compound 0.09487 µM); 0.493 in experiment [4] (first compound 0.3 µM); 0.759 in experiment [5] (first compound 0.02 µM); 0.57 in experiment [5] (first compound 0.2 µM). Moreover, the values for the relative viability in experiment [5] (first compound 0.6325 µM) and in experiment [5] (first compound 2 µM) were 0.739 and 0.644, respectively.

Regarding LC-2-ad, the relative viability in experiment [1] (first compound 0.003 µM) was found to be 0.458; in experiment [1] (first compound 0.03 µM), 0.415; in experiment [1] (first compound 0.09487 µM), 0.29; in experiment [1] (first compound 0.3 µM) it was 0.229; in experiment [2] (first compound 0.003 µM), 0.456; in experiment [2] (first compound 0.03 µM), 0.291. For the same cell line, the relative viability in experiment [2] (first compound 0.09487 µM) was 0.177; in experiment [2] (first compound 0.3 µM) it was 0.187; in experiment [3] (first compound 0.02 µM), 1.03; in experiment [3] (first compound 0.2 µM) it was 0.896; in experiment [3] (first compound 0.6325 µM) it was 1.05; in experiment [3] (first compound 2 µM), 0.861. Also, the relative viability in experiment [4] (first compound 0.003 µM) was 0.872; in experiment [4] (first compound 0.03 µM), 0.707; in experiment [4] (first compound 0.09487 µM) it was 0.5; in experiment [4] (first compound 0.3 µM), 0.236; in experiment [5] (first compound 0.02 µM) it was 0.902; in experiment [5] (first compound 0.2 µM), 0.907. In addition, the relative viability in experiment [5] (first compound 0.6325 µM) was 0.87; in experiment [5] (first compound 2 µM), 0.775.

Take HCC-15: the relative viability was determined as 0.65 in experiment [1] (first compound 0.003 µM); 0.681 in experiment [1] (first compound 0.03 µM); 0.187 in experiment [1] (first compound 0.09487 µM); 0.164 in experiment [1] (first compound 0.3 µM); 0.587 in experiment [2] (first compound 0.003 µM); 0.221 in experiment [2] (first compound 0.03 µM). Moreover, the relative viability in experiment [2] (first compound 0.09487 µM) is 0.112; in experiment [2] (first compound 0.3 µM), 0.112; in experiment [3] (first compound 0.02 µM), 0.939; in experiment [3] (first compound 0.2 µM), 0.852; in experiment [3] (first compound 0.6325 µM), 0.93; in experiment [3] (first compound 2 µM) it was 0.785. In addition, the relative viability in experiment [4] (first compound 0.003 µM) was 0.377; in experiment [4] (first compound 0.03 µM) it was 0.381; in experiment [4] (first compound 0.09487 µM), 0.178; in experiment [4] (first compound 0.3 µM) it was 0.149; in experiment [5] (first compound 0.02 µM), 0.394; in experiment [5] (first compound 0.2 µM), 0.344. Besides, the relative viability in experiment [5] (first compound 0.6325 µM) is 0.339; in experiment [5] (first compound 2 µM), 0.347.

Take NCI-H650: the relative viability in experiment [1] (first compound 0.003 µM) amounted to 0.314; in experiment [1] (first compound 0.03 µM), 0.334; in experiment [1] (first compound 0.09487 µM), 0.209; in experiment [1] (first compound 0.3 µM), 0.122; in experiment [2] (first compound 0.003 µM) it was 0.425; in experiment [2] (first compound 0.03 µM), 0.433. Moreover, the relative viability in experiment [2] (first compound 0.09487 µM) was determined as 0.219; in experiment [2] (first compound 0.3 µM), 0.175; in experiment [3] (first compound 0.02 µM), 0.754; in experiment [3] (first compound 0.2 µM) it was 1.08; in experiment [3] (first compound 0.6325 µM), 1.14; in experiment [3] (first compound 2 µM) it was 0.744. Also, the relative viability in experiment [4] (first compound 0.003 µM) stood at 0.976; in experiment [4] (first compound 0.03 µM), 0.906; in experiment [4] (first compound 0.09487 µM) it was 0.394; in experiment [4] (first compound 0.3 µM), 0.179; in experiment [5] (first compound 0.02 µM) it was 0.964; in experiment [5] (first compound 0.2 µM), 0.985. The figures for the relative viability in experiment [5] (first compound 0.6325 µM) and in experiment [5] (first compound 2 µM) were 0.919 and 0.963, respectively.
